Laboratory results from patent publication US20260374739A1, “SMALL MOLECULAR WEIGHT CHEMICAL COMPOUND TO ANTAGONIZE EPH-EPHRIN TETRAMERIZATION AND INHIBIT BIDIRECTIONAL SIGNALING” (THE BOARD OF REGENTS OF THE UNIVERSITY OF TEXAS SYSTEM, priority 2022, published 2026).
“Also recorded” adds a separate entry of the source.

Tests used:
[1] = in vitro plasma stability; type: in vitro ADME; conditions: mouse plasma; for plasma stability: free base or salt
Protocol: FIG. 46 depicts tests of A20 and A20-I free base and salt forms for in vitro plasma stability. Compounds were provided to the UT Southwestern PK Core facility and tested for stability when incubated with mouse plasma.
To examine the drug-like nature of the disclosed compounds, tests for solubility was conducted.

[2] = test system: CFA-induced thermal pain in mice; assay: CFA inflammatory pain, thermal; type: in vivo, mouse
Protocol: A total of five wildtype (WT) male mice were injected IP with A20 free base (3 mice at 10 mg/kg and 2 mice at 20 mg/kg in 6% DMSO/94% sunflower seed oil, data is pooled) and three WT males with vehicle (V) only as control. As indicated, injections of A20 or V started two days prior to the single injection of CFA into one of the two hind paws to initiate inflammatory pain, and injections continued for two additional days. For each day's examination of withdrawal latency, both left and right hind paws were subjected to 6-12 thermal pain measurements to obtain an average response time for each mouse. Mice were at 14 weeks age when experiment started.
Wildtype (WT) female mice were injected IP with either A20 free base (20 mg/kg in 6% DMSO/94% sunflower seed oil), with MCD kinase inhibitor (10 mg/kg in PBS), or vehicle only (6% DMSO/94% sunflower seed oil). Injections of A20, MCD, or V started two days prior to a single injection of CFA into one of the two hind paws to initiate inflammatory pain, and injections continued for two additional days. For each day's examination of withdrawal latency, both left and right hind paws were subjected to 6-12 thermal pain measurements to obtain an average response time, and for each mouse the average of the uninjured hind paw response time was divided by the average of the injured side response time to obtain a pain response ratio for each mouse which was then plotted and subjected to indicated statistical analysis. Data shown were those obtained at day +3 post-CFA. Mice were at 20 weeks age when experiment started.
FIG. 63 depicts tests of salt versions of compounds A20 and QPB4-Bn showing both are effective at reducing inflammatory pain when injected after the pain-generating insult and when using PBS as the vehicle. Wild-type (WT) male and female mice were injected IP with either A20.2×HCl salt (20 mg/kg in PBS), QPB4-Bn·2×HCl salt (20 mg/kg in PBS), or vehicle only (PBS). Here, the first injection of A20, QPB4-Bn, or V started 15 minutes after CFA was injected into one of the two hind paws to initiate inflammatory pain, and injections continued every 12 hours for three additional days. For each day's examination of withdrawal latency, both left and right hind paws were subjected to 6-12 thermal pain measurements to obtain an average response time, and for each mouse the average of the uninjured hind paw response time was divided by the average of the injured side response time to obtain a pain response ratio for each mouse which was then plotted and subjected to indicated statistical analysis. Data shown were those obtained at day +3 post-CFA. Mice were at 8 weeks age when experiment started.
FIG. 64 depicts tests of two more A20 analogs, salt forms of QPB4 and QPP (QPP127) show both are effective at reducing inflammatory pain when injected after the pain-generating insult and when using PBS as the vehicle. Wild-type (WT) female mice were injected IP with QPB4.2×HCl salt (20 mg/kg in PBS), QPP (QPP127)·2×HCl salt (20 mg/kg in PBS), or vehicle only (PBS). Here, the first injection of QPB4, QPP (QPP127), or vehicle started 15 minutes after CFA was injected into one of the two hind paws to initiate inflammatory pain, and injections continued every 12 hours for three additional days. For each day's examination of withdrawal latency, both left and right hind paws were subjected to 6-12 thermal pain measurements to obtain an average response time, and for each mouse the average of the uninjured hind paw response time was divided by the average of the injured side response time to obtain a pain response ratio for each mouse which was then plotted and subjected to indicated statistical analysis. Data shown were those obtained at day +3 post-CFA. Mice were at 12 weeks age when experiment started.
A20 was therefore tested in 14-week-old CD1 mice for enhanced thermal sensitivity induced by CFA. […]

[3] = test system: DH neurons in the spinal cord; assay: dorsal horn neuron activation (Tom+) after Zymosan; type: in vivo, mouse; conditions: PO
Source text: In this example, an in-house method to count and quantify/analyze Tom+ neurons (see Example 23) in the dorsal horn (DH) of the spinal cord is used to track the effect of an inflammatory insult (subcutaneous injection of CFA into the left hind paw). As described above in Example 23, we initially dissected perfusion-fixed spinal cords and then cut in the transverse plane 50 μm thick serial sections throughout the entire length of the lumbar cord of each animal using a vibratome aiming to capture all sections. As serial sections are cut, they are placed into 10 section bins (500 μm spinal cord per bin) and a total of 12 bins are collected spanning 6 mm total spinal cord length. […] Focusing in on this “sweet spot” of 4 bins, the additional sections were mounted and analyzed (aiming for at least 12 sections from these 4 bins, 3 per bin) to increase total data to analyze.
In another example, 307 Axioscan imaged lumbar spinal cord sections from the “sweet spots” of eight+/+wild-type mice subjected to Zymosan pain model and oral dosing of either vehicle (n=3), 3511-I (2×HCl, n=3), or BQPB4 (3×HCl, n=2) were analyzed. […] There was also a trend towards lower overall Tom+ ratios in the 3511-I or BQPB4 treated mice, though the numbers of mice analyzed here were too low to reveal significance.

Oc1c(Br)cc(CN2CCOCC2)c2cccnc12 [Compound 5, 7-bromo-5-(morpholinomethyl)quinolin-8-ol]
plasma stability [1]: quite stable | thermal pain ratio ([2]; IP or PO 20 mg/kg, vehicle 4 or above): < 2 | thermal pain ([2]; IP, dosing started two days before CFA, listed as A20): remarkably blunted; also recorded: appears to be a more effective agent | thermal pain ([2]; dosed after CFA, listed as A20): ability to blunt the enhanced sensitivity produced by the inflammatory pain insult; also recorded: reduced sensitivity to the infrared heat source compared to the vehicle treated mice

Oc1c(I)cc(CN2CCOCC2)c2cccnc12 [Compound 7, 7-iodo-5-(morpholinomethyl)quinolin-8-ol]
plasma half-life longer than A20 [1]: 3-5 times | plasma stability [1]: superior stability

Oc1ccc(CN2CCN(c3ccc(Br)cc3)CC2)c2cccnc12 [Compound 26, 5-((4-(4-bromophenyl)piperazin-1-yl)methyl)quinolin-8-ol]
thermal pain ([2]; dosed after CFA): ability to blunt the enhanced sensitivity produced by the inflammatory pain insult

Oc1c(Br)cc(CN2CCN(c3ccc(Br)cc3)CC2)c2cccnc12 [Compound 28, 7-bromo-5-((4-(4-bromophenyl)piperazin-1-yl)methyl)quinolin-8-ol]
ratio of Tom+ DH neurons [3]: significantly lower ratio of Tom+ neurons compared to the vehicle treated animals

Oc1ccc(CN2CCN(c3ccc(Br)cn3)CC2)c2cccnc12 [Compound 33, 5-((4-(5-bromopyridin-2-yl)piperazin-1-yl)methyl)quinolin-8-ol]
thermal pain ([2]; dosed after CFA): ability to blunt the enhanced sensitivity produced by the inflammatory pain insult

Oc1ccc(CN2CCN(Cc3ccc(Br)cc3)CC2)c2cccnc12 [Compound 42, 5-((4-(4-bromobenzyl)piperazin-1-yl)methyl)quinolin-8-ol]
thermal pain ([2]; dosed after CFA): ability to blunt the enhanced sensitivity produced by the inflammatory pain insult

COc1ccccc1N1CCN(Cc2cc(I)c(O)c3ncccc23)CC1 [Compound 71, 7-iodo-5-((4-(2-methoxyphenyl)piperazin-1-yl)methyl)quinolin-8-ol]
ratio of Tom+ DH neurons [3]: significantly lower ratio of Tom+ neurons compared to the vehicle treated animals
